{
  "source": "patent EP1370276B1",
  "about": "“INTERCELLULAR COMMUNICATION FACILITATING COMPOUNDS AND THEIR MEDICAL USE” (Zealand Pharma A/S, priority 2001, dated 2002)",
  "key": {"[1]": {"system": "alkaline phosphatase (ALP) activity of human osteoblasts", "assay": "Alkaline phosphatase assay in human osteoblasts", "assay_type": "cell-based", "method": "(§1) Human osteblast cells (hOB): Cells were isolated from human bone marrow obtained by puncture of the posterior iliac spine of healthy volunteers (aged 20-36): 10-15 ml marrow material was collected in 15 ml PBS+Ca,Mg (Life Technologies, Cat.No. 14040) with 100 U/ml Heparin (Sigma, Cat.No. H-3149). The mononuclear fraction of the marrow was isolated on a Lymphoprep gradient (Nycomed Pharma, Cat.No. 1001967), by centrifugation at 2200 rpm for 30 min. After harvesting, the mononuclear fraction was washed once with culture medium and centrifuged at 1800 rpm for 10 min. Subsequently cells were counted and plated in culture medium at 8x10^6 cells/100 mm dish. hOB medium (all reagents obtained from Life Technologies): MEM w/o Phenol Red w/ Glutamax (Cat.No. 041-93013) supplemented with 10% heat inactivated fetal calf serum (Cat.No. 10106) and 0.1% Penicillin/Streptomycin (Cat.No. 15140). Medium was changed the following day and the cells were cultured at 37°C in 5%CO2 with medium change every 7 days. After 3-4 weeks of culture the cells had reached 70% confluence. […]\n• Day 1: Cells were plated in 96-well plates at a conc. of 8000 cells/well (hOB) or 3000 cells/well (ROS) in 200 µl normal culture medium. • Day 2: Medium was changed on the cells. • Day 4: (Day 3 for ROS): Cells were washed with 200 µl MEM, 0.1% BSA (Sigma, Cat.No. A-9418). […] Absorbance was measured using a plate reader at 405 nm."}, "[2]": {"system": "human osteoblastic cells", "assay": "DDT-induced uncoupling, Lucifer Yellow dye transfer in human osteoblastic cells", "assay_type": "cell-based", "settings": "10^-8 mol/l, 10 minutes, after DDT 13 µM for 60 minutes", "method": "as §1, with “osteoblast cells:” for “osteblast cells (hOB):”, “PBS + Ca, Mg” for “PBS+Ca,Mg”, “confluence. The medium was then supplemented with 100 nM Dexamethasone (Sigma, Cat.No. D-4902) for 7 days. Cells were then plated for video imaging experiments: a 25 mm #1 glass coverslip was placed in a 35 mm dish (or each well of a 6-well multidish), cells were plated at 2.5x10^5 cells/coverslip and cultured for 2-3 days before use.” for “confluence.”"}, "[3]": {"system": "CHO cells", "assay": "In situ binding of [125I]AAP10 on intact CHO cells", "settings": "overnight at 4° C", "method": "CHO cells are seeded in 24-multi well dishes in a density of 7,900 cells/cm^2 (∼ 15,000 cells/well) and grown for 3 Days In Vitro (DIV) in 1 ml/well of F-12K Nutrient Mixture supplemented with 10% Foetal Calf Serum (FCS) and 1000 units penicillin/1000 µg streptomycin (pen/strep) in an atmosphere of 5% CO2 and 100% humidity at 37° C. The cell density has at that time increased to 295,000 cells/cm^2 (152 pgprot/cell ∼ 85 µgprot/well).\nOn the day of analysis cells are removed from the incubator and each well is washed twice with, depending on the experiment, either 2 ml pre-warmed (37 °C) or ice-cold (0 °C) D-PBS to remove serum. It is important to keep the period to a minimum during which cells are left without physiological solutions to avoid that they dry out during washing procedures. The cold washed cells are used directly for binding assays while the warm washed cells are used for experiments with glucose and oxygen deprivation.\nThe in situ binding is performed by a modified protocol based on the description by Koenig. […] Cells incubate overnight at 4° C to reach equilibrium. Each well, one at the time, is then rinsed rapidly with 2 x 1 ml D-PBS and left to dry.\n0.25 ml of 0.5 % Triton-X-100 (v/v) is added to each well and cells left for at least 1 h to solubilize. The extract is transferred to counting vials, the wells rinsed with 0.25 ml water and the rinse extract added to the corresponding vials. The vials are counted in a γ-counter. Table 3. In situ binding, IC50 (nM)."}, "[4]": {"system": "ventricular reentry arrhytmias", "assay": "Ventricular reentry arrhythmias in dogs after coronary artery occlusion", "assay_type": "in vivo", "settings": "after the lowest i.v. dose (bolus: 0.1 µg/kg; infusion: 2 ng/kg/min), after CAO", "quoted_text": "Three dogs were studied in the anesthetized, open chest state to facilitate electrode placement for mapping. α-chloralose was given as a bolus (200 mg/kg) and then a constant Infusion at 8 mg/kg/hr (dissolved in polyethylene glycol, MW=200). The femoral vein and artery was cannulated for administration of fluid and drugs and for measurement of ascending aortic pressure, respectively.\nThe sinus node was clamped and the atrial appendage was paced with a programmable stimulator with constant current outputs at two times diastolic threshold. Pacing rate was ≥200 b/min to control heart rates. […] Late ventricular diastolic threshold was measured during each intervention; the pacing current was four times threshold.\nTest sites were chosen along the shaft of 16 pole needles (J. Kassell, Fayetteville, NC); each pole completely surrounds the needle shaft to prevent directionality of needle orientation from recording of adjacent Purkinje strands. Six bipolar electrograms (1 mm spacing) were recorded sequentially down the shaft of the needle by amplifying up to 1000 times, filtering from 3-1300 Hz and recording via oscilloscope during atrial pacing. Four intramural electrograms are recorded on each multipolar needle. […] Inter-needle distance measured on epicardium varies over 6-10 mm in dogs weighing 12-16 kg. […]"}},
  "data": [
    {"substance": "Ac-D-Tyr-D-Pro-D-4Hyp-Gly-D-Ala-Gly-NH2 [Compound 2]", "values": [
      {"measurement": "ALP activity", "setting": "[1]; 1 × 10^-13 to 1 × 10^-6, normal culture conditions, 4 days", "result": "increased ALP activity at most of the concentrations tested"},
      {"measurement": "stimulation of ALP activity during hypoxia compared with normoxia", "setting": "[1]; 5% O2, four days, 10^-11 to 10^-8 mol/l", "result": "about 15%"},
      {"measurement": "cell-to-cell dye transfer, median", "setting": "[2]", "result": 8.3, "unit": "cells"},
      {"measurement": "IC50", "setting": "[3]", "result": 0.5, "unit": "nM"},
      {"measurement": "inducibility of epicardial reentry VT", "setting": "[4]", "result": "VT was no longer inducible"}
    ]}
  ]
}
